Data reported in patent publication US20240302368A1, “MIGRATION OF HUMAN PERIPHERAL LEUKOCYTES IN RESPONSE TO CHEMOTACTIC FACTORS DURING PREGNACY” (The Governors of the University of Alberta, priority 2021, published 2024).

Columns and labels:
[1] = target: T1, CXCR2 (Homo sapiens, UniProt P25025); assay: Term leukocyte chemotaxis towards TL homogenized extracts (LMA), CXCR2 inhibition; format: cell-based; conditions: increasing concentrations, FIG. 18
T1 construct: Whole blood is collected from a pregnant person into an EDTA-coated collection tube; endogenous in cells; host or cells: total peripheral leukocytes from pregnant women in term labour
T1 sequence (P25025 1-360): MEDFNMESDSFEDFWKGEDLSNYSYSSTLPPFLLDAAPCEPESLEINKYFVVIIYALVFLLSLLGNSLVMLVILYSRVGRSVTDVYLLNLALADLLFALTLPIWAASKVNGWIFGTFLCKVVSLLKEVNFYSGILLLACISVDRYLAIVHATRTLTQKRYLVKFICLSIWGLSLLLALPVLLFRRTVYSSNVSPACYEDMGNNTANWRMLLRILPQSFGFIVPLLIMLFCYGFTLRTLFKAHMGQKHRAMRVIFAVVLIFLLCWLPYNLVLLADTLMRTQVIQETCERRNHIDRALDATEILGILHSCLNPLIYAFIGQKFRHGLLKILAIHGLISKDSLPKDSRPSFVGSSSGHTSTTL
Procedure: (§1) Chemotaxis Assay: Chemoattractants (50 μL) are loaded into the lower wels of a simple, resin 3D printed, 3-well chemotaxis chamber and a polycarbonate filter with 3 μm pores (Neuro Probe Inc., MD, USA) is placed on top of the wells. A silicone gasket with holes for each well is positioned on top of the filter and the upper chamber is lowered onto the silicone gasket, creating a tight seal. Total leukocytes (100 μL) are loaded into the wells of the upper chamber and the apparatus is incubated at 90 min at 37 C in 5% CO2. The apparatus is then disassembled and leukocytes that have migrated through the filter into the lower chamber are quantified using a hemocytometer, flow cytometry or fluorescence spectrometry.
(§2) We will use SB 225002 (CXCR2 antagonist) and J 113863 (CCR1 antagonist), which are commercially available from RND Systems for around USD 200 each. A time course and kinetics experiment will be performed for each antagonist to optimize incubation length and concentration. TL leukocytes (n=6) will be inhibited with each antagonist using these optimized parameters, and the resulting number of leukocytes that undergo chemotaxis to TL chemoattractant in our LMA will be compared to control (i.e. non-treated leukocytes).

[2] = target: T2, CCR1 (Homo sapiens, UniProt P32246); assay: Term leukocyte chemotaxis towards TL homogenized extracts (LMA), CCR1 inhibition; format: cell-based; conditions: increasing concentrations, FIG. 18
T2 construct: Whole blood is collected from a pregnant person into an EDTA-coated collection tube; endogenous in cells; host or cells: total peripheral leukocytes from pregnant women in term labour
T2 sequence (P32246 1-355): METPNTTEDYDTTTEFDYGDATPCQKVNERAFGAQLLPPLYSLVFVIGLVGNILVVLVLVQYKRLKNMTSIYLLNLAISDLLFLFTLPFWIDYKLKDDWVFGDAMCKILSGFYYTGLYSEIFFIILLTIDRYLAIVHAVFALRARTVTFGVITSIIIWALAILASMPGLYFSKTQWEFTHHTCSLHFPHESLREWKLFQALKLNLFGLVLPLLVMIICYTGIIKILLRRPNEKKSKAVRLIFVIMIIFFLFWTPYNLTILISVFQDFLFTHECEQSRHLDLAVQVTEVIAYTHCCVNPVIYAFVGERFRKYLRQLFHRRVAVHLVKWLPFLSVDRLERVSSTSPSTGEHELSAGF
Procedure: as §1, §2

term leukocyte migration [2]	Structure (SMILES)	term leukocyte migration [1]
	O=C(Nc1ccc([N+](=O)[O-])cc1O)Nc1ccccc1Br [SB225002]	decrease leukocyte migration
decrease leukocyte migration	CC[N+]1(C/C2=C/CCCCCC2)CCC(NC(=O)C2c3cc(Cl)ccc3Oc3ccc(Cl)cc32)CC1.[I-] (centres unmarked) [J113863]	
